The values below come from patent US20180042875A1, “COMPOUND USE IN PROMOTING ENERGY EXPENDITURE” (NESTEC S.A., priority 2015, published 2018).

Data set [1] is described as follows: Food intake (tolerance / food aversion) of mice on supplemented diet. The format is in vivo. The protocol: Mice were fed a low fat diet supplemented with either water (Veh) or quinic acid at low dose (25 mg/(kg*day)) or high dose (HD, 100 mg/(kg*day). Food intake was calculated between 12 and 18 weeks of age by weighing the food placed on the tray of the cage at the start of the week and the amount remaining 5 days later.
Mice were fed a high fat diet (60% fat) supplemented with either water (Veh) or quinic acid at low dose (25 mg/(kg*day)) or high dose (HD, 100 mg/(kg*day). Calculations for food intake were made in the same manner as for mice on chow diet.
Powder low fat diet (LFD; Research Diets Inc.; Ref: D12450J) was reconstituted into ˜20 gram pellets using 100 ml of water/kg of food. In addition to normal low fat diet pellets, two additional groups were made by adding quinic acid (QA) to the water used for reconstitution. A first group (low dose) was created, where 0.25 g of QA were added per Kg of food (this means, 0.25 grams per 100 ml of water). In a second group (high dose), 1 g of QA was added per Kg of food (this means, 1 gram per […] of water). […]
At 10 weeks of age, 60 male mice were randomly distributed in 6 groups (n=10 per group) and provided the different diets: LFD (Control, Low Dose and High Dose) or HFD (Control, Low Dose and High Dose). […] During this time, body weight and food intake was monitored weekly.

Data set [2] is described as follows: Body weight evolution on chow or high-fat diet. The conditions noted are these: 25 mg/(kg*day), FIG. 3. It is filed as in vivo, mice. The protocol: Body weight evolution on mice fed on chow diet or high-fat diet, supplemented with either water (Veh) or Quinic Acid (25 mg/(kg*day) was calculated. At 10 weeks of age, 60 male mice were randomly distributed in 6 groups (n=10 per group) and provided the different diets: LFD (Control, Low Dose and High Dose) or HFD (Control, Low Dose and High Dose). Mice were maintained for 8 weeks on their corresponding diets before phenotyping took place. During this time, body weight and food intake was monitored weekly.

Data set [3] in a line: Body lean and fat mass composition by Echo-MRI. The conditions noted are these: 25 mg/(kg*day), FIG. 4. It is filed as in vivo, mice. The protocol: Body lean and fat mass composition of 18 week-old mice fed on chow diet or high-fat diet, supplemented with either water (Veh) or Quinic Acid (25 mg/(kg*day) was measured by nuclear magnetic resonance using an Echo-Magnetic Resonance Imaging (Echo-MRI) system (Echo Medical System LCC).

Data set [4] can be described thus: Oxygen consumption and RER in CLAMS (indirect calorimetry). It is filed as in vivo. The conditions noted are these: 18 week-old mice on chow diet, 25 mg/(kg*day), dark phase, FIG. 6.
The nature of data set [5]: Glucose excursion after intraperitoneal glucose (glucose tolerance). The format is in vivo. The conditions noted are these: 12 hr fasted 20 week-old mice on chow diet or HFD, 25 mg/(kg*day), i.p. glucose 2 g/kg, FIG. 7. The protocol:
Glucose excursion curves were determined after an intraperitoneal injection of glucose (2 g/kg) on 12 hr fasted 20 week-old mice fed a chow diet or a HFD, supplemented with either water (Veh) or Quinic Acid (25 mg/(kg*day).

Data set [6] can be described thus: Glucose excursion after intraperitoneal insulin (insulin response). It is filed as in vivo, mice. To be noted: 6 hr fast, 25 mg/(kg*day). The protocol: Glucose excursion curves were determined after an intraperitoneal injection of insulin (0.3 U/Kg) after a 6 hr fast on 22 week-old mice fed a chow diet, supplemented with either water (Veh) or Quinic Acid (25 mg/(kg*day). Glucose excursion curves were determined after an intraperitoneal injection of insulin (0.75 U/Kg) after a 6 hr fast on 22 week-old mice fed a high-fat diet, supplemented with either water (Veh) or Quinic Acid (25 mg/(kg*day).

Data set [7] can be described thus: Rectal temperature in cold room (thermogenic function). The format is in vivo. To be noted: 24-week old mice on chow diet, 25 mg/(kg*day), cold room 6° C., no food, measured every hour, FIG. 10. The protocol: Rectal temperature was measured at 8 a.m. (t=0) on 24-week old mice fed a chow diet, supplemented with either water (Veh) or Quinic Acid (25 mg/(kg*day). Then, mice were placed on a cold room (6° C.), with no access to food, and rectal temperature was measured every hour.

Data set [8] in a line: Treadmill endurance, increasing speed protocol. It is filed as in vivo. The conditions noted are these: 26 week-old high-fat fed mice, 25 mg/(kg*day), FIG. 11. The protocol:
26 week-old mice were place on a treadmill and endurance was evaluated by using a increasing speed protocol, as described previously (Lagouge et al., 2006, PMID: 17112576). The tests were performed on low and high fat-fed mice supplemented with either water (Veh) or Quinic Acid (25 mg/(kg*day).

For another data set, the target named is T1, α-amylase (Sus scrofa, UniProt P00690).
T1 sequence (P00690 16-511): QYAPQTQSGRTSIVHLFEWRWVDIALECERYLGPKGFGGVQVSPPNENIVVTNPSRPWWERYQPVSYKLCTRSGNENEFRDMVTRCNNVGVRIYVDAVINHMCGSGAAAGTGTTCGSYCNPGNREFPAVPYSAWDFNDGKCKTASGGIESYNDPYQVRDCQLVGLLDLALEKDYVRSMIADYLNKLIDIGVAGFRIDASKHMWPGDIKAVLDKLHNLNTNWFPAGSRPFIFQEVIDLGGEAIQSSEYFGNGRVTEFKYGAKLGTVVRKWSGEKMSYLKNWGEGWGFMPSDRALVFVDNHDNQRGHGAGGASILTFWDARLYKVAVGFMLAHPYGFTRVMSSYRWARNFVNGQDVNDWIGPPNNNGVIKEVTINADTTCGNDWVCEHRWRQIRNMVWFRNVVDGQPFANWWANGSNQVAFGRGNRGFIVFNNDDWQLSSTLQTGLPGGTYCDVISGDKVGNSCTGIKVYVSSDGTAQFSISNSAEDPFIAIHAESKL
The conditions noted are these: compared to caffeic and chlorogenic acids (Narita et al. 2009); cited from earlier work.

The subject of a further data set is maltase. The conditions noted are these: enzyme involved in digestion of carbohydrates; cited from earlier work.
For another data set, the target named is sucrase (Homo sapiens, UniProt P14410). The conditions noted are these: enzyme involved in digestion of carbohydrates; cited from earlier work.
A further data set relates to lipase. The conditions noted are these: enzyme involved in digestion of lipids; cited from earlier work.

Each structure is given as a SMILES string.

Sequence of sucrase (P14410 whole entry, species assumed): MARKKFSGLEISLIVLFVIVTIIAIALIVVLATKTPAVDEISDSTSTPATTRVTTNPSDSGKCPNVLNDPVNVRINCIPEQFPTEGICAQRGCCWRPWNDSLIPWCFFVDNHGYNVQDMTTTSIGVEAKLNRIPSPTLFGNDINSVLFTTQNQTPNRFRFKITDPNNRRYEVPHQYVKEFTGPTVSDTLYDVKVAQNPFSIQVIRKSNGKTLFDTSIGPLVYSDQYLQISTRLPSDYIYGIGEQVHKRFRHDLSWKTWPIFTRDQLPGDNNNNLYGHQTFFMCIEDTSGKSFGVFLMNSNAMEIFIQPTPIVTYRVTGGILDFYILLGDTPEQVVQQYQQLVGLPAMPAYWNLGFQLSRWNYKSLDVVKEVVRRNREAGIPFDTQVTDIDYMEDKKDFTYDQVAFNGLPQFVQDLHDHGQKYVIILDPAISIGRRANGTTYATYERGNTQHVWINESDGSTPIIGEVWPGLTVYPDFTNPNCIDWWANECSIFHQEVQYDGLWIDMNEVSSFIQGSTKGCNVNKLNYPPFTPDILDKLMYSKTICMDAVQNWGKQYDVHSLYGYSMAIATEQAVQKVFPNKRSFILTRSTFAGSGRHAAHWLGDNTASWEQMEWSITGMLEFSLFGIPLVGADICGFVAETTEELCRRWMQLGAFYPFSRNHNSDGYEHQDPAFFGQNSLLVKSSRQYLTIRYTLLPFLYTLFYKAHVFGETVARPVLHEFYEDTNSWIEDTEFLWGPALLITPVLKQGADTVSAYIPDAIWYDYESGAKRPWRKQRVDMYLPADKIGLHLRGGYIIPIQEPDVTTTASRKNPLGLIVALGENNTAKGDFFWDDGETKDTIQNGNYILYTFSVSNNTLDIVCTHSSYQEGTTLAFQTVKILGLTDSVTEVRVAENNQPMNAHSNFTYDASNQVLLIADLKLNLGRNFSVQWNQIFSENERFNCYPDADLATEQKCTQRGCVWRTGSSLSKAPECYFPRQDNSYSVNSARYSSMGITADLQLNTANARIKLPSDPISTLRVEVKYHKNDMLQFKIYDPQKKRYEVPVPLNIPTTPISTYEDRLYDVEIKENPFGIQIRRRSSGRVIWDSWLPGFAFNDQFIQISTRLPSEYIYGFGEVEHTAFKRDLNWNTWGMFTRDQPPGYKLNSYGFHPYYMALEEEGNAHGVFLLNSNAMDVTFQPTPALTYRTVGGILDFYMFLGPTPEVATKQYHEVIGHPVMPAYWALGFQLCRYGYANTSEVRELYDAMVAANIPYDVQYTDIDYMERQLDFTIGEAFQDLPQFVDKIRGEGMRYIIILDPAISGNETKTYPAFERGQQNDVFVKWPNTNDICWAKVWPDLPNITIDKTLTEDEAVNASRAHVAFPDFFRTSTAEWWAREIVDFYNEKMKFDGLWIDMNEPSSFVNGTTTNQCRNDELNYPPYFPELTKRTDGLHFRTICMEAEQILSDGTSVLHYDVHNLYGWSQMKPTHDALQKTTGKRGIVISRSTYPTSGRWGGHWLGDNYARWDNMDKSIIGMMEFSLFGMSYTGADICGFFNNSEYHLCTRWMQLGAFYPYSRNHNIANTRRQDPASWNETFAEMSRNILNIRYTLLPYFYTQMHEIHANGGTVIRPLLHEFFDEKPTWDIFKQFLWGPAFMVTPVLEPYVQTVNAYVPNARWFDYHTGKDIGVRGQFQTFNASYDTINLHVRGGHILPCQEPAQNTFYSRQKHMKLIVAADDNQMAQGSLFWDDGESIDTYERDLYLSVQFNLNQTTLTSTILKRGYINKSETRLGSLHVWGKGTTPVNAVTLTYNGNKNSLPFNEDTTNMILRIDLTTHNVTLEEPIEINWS

As to `O=C(O)[C@]1(O)C[C@@H](O)[C@@H](O)[C@H](O)C1` [Quinic acid], the “food aversion (food intake)” value in [1] (mice on chow (low fat) diet, high dose 100 mg/(kg*day), 12-18 weeks of age, FIG. 1) was “caused food aversion”; in data set [1] (mice on high fat diet (60% fat), low dose 25 or high dose 100 mg/(kg*day), FIG. 2) it was “did not cause food aversion”. Moreover, the body weight gain result in data set [2] (mice on high-fat diet) and in data set [2] (mice on low-fat (chow) diet) was “reduced weight gain” each time. For the same compound, the “fat deposition (fat mass, Echo-MRI)” value in data set [3] (18 week-old mice on chow diet) and in [3] (18 week-old mice on high-fat diet) was “reduced fat deposition” throughout. Besides, the “carbohydrate metabolism (total carbohydrate oxidation = 4.55*VO2-3.21*VCO2)” value in data set [4] is on record as “enhanced”. Further, the “energy consumption (oxygen consumption)” value in data set [4] is “enhanced energy consumption”. Also, the glucose tolerance entry in data set [5] is reported as “moderately enhanced glucose tolerance”. For the same compound, the insulin response result is on record as “did not alter insulin response” in [6] (22 week-old chow-fed mice, i.p. insulin 0.3 U/Kg, FIG. 8) and “did not significantly affect insulin response” in data set [6] (22 week-old high-fat fed mice, i.p. insulin 0.75 U/Kg, FIG. 9). Further, the basal glycemia entry in data set [6] (22 week-old high-fat fed mice, FIG. 9) is given as “lowered basal glycemia”. Further, in data set [7], the “thermogenic function (rectal temperature)” value is on record as “enhanced thermogenic function”. In addition, the “endurance performance (treadmill)” value in [8] is listed as “potentiates endurance performance”. For the same compound, at α-amylase, the “inhibition of α-amylase” value is reported as “poor inhibitor”. In the data set with maltase, the effect on maltase entry is reported as “no effect”. Further, the effect on sucrase result on sucrase is given as “no effect”. In addition, the effect on lipase result with lipase was “no effect”.
